{"source": "ChEMBL document CHEMBL2440071", "about": "“Antimycobacterial and herbicidal activity of ring-substituted 1-hydroxynaphthalene-2-carboxanilides” (Bioorg Med Chem, 2013)", "note": "Activity calls are given as the source filed them. The rule behind the calls is not given here.", "data": [{"system": "Mycolicibacterium smegmatis", "assay": "Ratio of isoniazid MIC to compound MIC for Mycobacterium smegmatis ATCC 700084", "type": "functional", "settings": "not given", "values": [{"smiles": "Cc1cccc(NC(=O)c2ccc3ccccc3c2O)c1", "Ratio": 2.5}, {"smiles": "O=C(Nc1ccc(Br)cc1)c1ccc2ccccc2c1O", "Ratio": 2.5}]}, {"system": "Mycobacterium marinum", "assay": "Antimycobacterial activity against Mycobacterium marinum CAMP 5644 after 21 days by two-fold serial dilution method", "type": "functional", "settings": "CAMP 5644, 504 h", "units": {"MIC": "µM"}, "values": [{"smiles": "O=C(Nc1ccc([N+](=O)[O-])cc1)c1ccc2ccccc2c1O", "MIC": 104}, {"smiles": "O=C(Nc1ccc(F)cc1)c1ccc2ccccc2c1O", "MIC": 114}, {"smiles": "O=C(Nc1ccccc1Cl)c1ccc2ccccc2c1O", "MIC": 107}, {"smiles": "O=C(Nc1cccc(F)c1)c1ccc2ccccc2c1O", "MIC": 28.4}, {"smiles": "O=C(Nc1ccccc1[N+](=O)[O-])c1ccc2ccccc2c1O", "MIC": "> 830"}, {"smiles": "O=C(Nc1cccc([N+](=O)[O-])c1)c1ccc2ccccc2c1O", "MIC": "> 830"}, {"smiles": "O=C(Nc1ccccc1Br)c1ccc2ccccc2c1O", "MIC": "> 748"}, {"smiles": "O=C(Nc1ccc(Cl)cc1)c1ccc2ccccc2c1O", "MIC": 215}, {"smiles": "O=C(Nc1ccccc1C(F)(F)F)c1ccc2ccccc2c1O", "MIC": 96.6}, {"smiles": "Cc1cccc(NC(=O)c2ccc3ccccc3c2O)c1", "MIC": 28.8}, {"smiles": "O=C(Nc1ccc(Br)cc1)c1ccc2ccccc2c1O", "MIC": 46.7}, {"smiles": "O=C(Nc1cccc(Cl)c1)c1ccc2ccccc2c1O", "MIC": 107}]}, {"system": "not listed separately", "assay": "Cytotoxicity against human THP1 cells after 24 hrs by lactate dehydrogenase assay", "type": "cell-based", "settings": "THP-1 cells, read-out: LD50", "units": {"CC50 at 24 h": "µM"}, "values": [{"smiles": "O=C(Nc1ccc(F)cc1)c1ccc2ccccc2c1O", "CC50 at 24 h": "> 10"}, {"smiles": "O=C(Nc1cccc(F)c1)c1ccc2ccccc2c1O", "CC50 at 24 h": "> 10"}, {"smiles": "O=C(Nc1ccc(Cl)cc1)c1ccc2ccccc2c1O", "CC50 at 24 h": "> 20"}, {"smiles": "O=C(Nc1ccccc1C(F)(F)F)c1ccc2ccccc2c1O", "CC50 at 24 h": "> 20"}, {"smiles": "Cc1cccc(NC(=O)c2ccc3ccccc3c2O)c1", "CC50 at 24 h": "> 20"}, {"smiles": "O=C(Nc1ccc(Br)cc1)c1ccc2ccccc2c1O", "CC50 at 24 h": "> 20"}, {"smiles": "O=C(Nc1cccc(Cl)c1)c1ccc2ccccc2c1O", "CC50 at 24 h": "> 20"}]}, {"system": "not listed separately", "assay": "Lipophilicity, log K of the compound by RP-HPLC analysis", "type": "physicochemical", "settings": "not given", "values": [{"smiles": "O=C(Nc1ccc([N+](=O)[O-])cc1)c1ccc2ccccc2c1O", "log K": 0.5298}, {"smiles": "O=C(Nc1ccc(F)cc1)c1ccc2ccccc2c1O", "log K": 1.0533}, {"smiles": "O=C(Nc1ccccc1Cl)c1ccc2ccccc2c1O", "log K": 0.8764}, {"smiles": "O=C(Nc1cccc(F)c1)c1ccc2ccccc2c1O", "log K": 1.0763}, {"smiles": "O=C(Nc1ccccc1[N+](=O)[O-])c1ccc2ccccc2c1O", "log K": 0.5014}, {"smiles": "O=C(Nc1cccc([N+](=O)[O-])c1)c1ccc2ccccc2c1O", "log K": 0.6609}, {"smiles": "O=C(Nc1ccccc1Br)c1ccc2ccccc2c1O", "log K": 0.9234}, {"smiles": "O=C(Nc1ccc(Cl)cc1)c1ccc2ccccc2c1O", "log K": 1.1314}, {"smiles": "O=C(Nc1ccccc1C(F)(F)F)c1ccc2ccccc2c1O", "log K": 0.6899}, {"smiles": "Cc1cccc(NC(=O)c2ccc3ccccc3c2O)c1", "log K": 1.4254}, {"smiles": "O=C(Nc1ccc(Br)cc1)c1ccc2ccccc2c1O", "log K": 1.1224}, {"smiles": "O=C(Nc1cccc(Cl)c1)c1ccc2ccccc2c1O", "log K": 1.1615}]}, {"system": "Mycolicibacterium smegmatis", "assay": "Antimycobacterial activity against Mycobacterium smegmatis ATCC 700084 after 3 days by two-fold serial dilution method", "type": "functional", "settings": "ATCC 700084, 72 h", "units": {"MIC": "µM"}, "values": [{"smiles": "O=C(Nc1ccc([N+](=O)[O-])cc1)c1ccc2ccccc2c1O", "MIC": "> 830"}, {"smiles": "O=C(Nc1ccc(F)cc1)c1ccc2ccccc2c1O", "MIC": "> 910"}, {"smiles": "O=C(Nc1ccccc1Cl)c1ccc2ccccc2c1O", "MIC": 860}, {"smiles": "O=C(Nc1cccc(F)c1)c1ccc2ccccc2c1O", "MIC": 910}, {"smiles": "O=C(Nc1ccccc1[N+](=O)[O-])c1ccc2ccccc2c1O", "MIC": "> 830"}, {"smiles": "O=C(Nc1cccc([N+](=O)[O-])c1)c1ccc2ccccc2c1O", "MIC": "> 830"}, {"smiles": "O=C(Nc1ccccc1Br)c1ccc2ccccc2c1O", "MIC": "> 748"}, {"smiles": "O=C(Nc1ccc(Cl)cc1)c1ccc2ccccc2c1O", "MIC": 215}, {"smiles": "O=C(Nc1ccccc1C(F)(F)F)c1ccc2ccccc2c1O", "MIC": "> 773"}, {"smiles": "Cc1cccc(NC(=O)c2ccc3ccccc3c2O)c1", "MIC": 57.7}, {"smiles": "O=C(Nc1ccc(Br)cc1)c1ccc2ccccc2c1O", "MIC": 46.7}, {"smiles": "O=C(Nc1cccc(Cl)c1)c1ccc2ccccc2c1O", "MIC": "> 860"}]}, {"system": "Spinacia oleracea", "assay": "Inhibition of PS2 in spinach chloroplasts assessed as photoreduction of DCPIP measured remaining activity incubated for 2 mins in dark condition prior to testing by spectrophotometry in presence of diphenylcarbazide relative to control; values are per cent of control", "parameters": "concentration or dose not given beside the values", "settings": "not given", "units": {"residual activity": "%"}, "values": [{"smiles": "O=C(Nc1ccc([N+](=O)[O-])cc1)c1ccc2ccccc2c1O", "residual activity": 95}, {"smiles": "O=C(Nc1ccc(F)cc1)c1ccc2ccccc2c1O", "residual activity": 95}, {"smiles": "O=C(Nc1ccccc1Cl)c1ccc2ccccc2c1O", "residual activity": 95}, {"smiles": "O=C(Nc1cccc(F)c1)c1ccc2ccccc2c1O", "residual activity": 95}, {"smiles": "O=C(Nc1ccccc1[N+](=O)[O-])c1ccc2ccccc2c1O", "residual activity": 95}, {"smiles": "O=C(Nc1cccc([N+](=O)[O-])c1)c1ccc2ccccc2c1O", "residual activity": 95}, {"smiles": "O=C(Nc1ccccc1Br)c1ccc2ccccc2c1O", "residual activity": 95}, {"smiles": "O=C(Nc1ccc(Cl)cc1)c1ccc2ccccc2c1O", "residual activity": 95}, {"smiles": "O=C(Nc1ccccc1C(F)(F)F)c1ccc2ccccc2c1O", "residual activity": 95}, {"smiles": "Cc1cccc(NC(=O)c2ccc3ccccc3c2O)c1", "residual activity": 95}, {"smiles": "O=C(Nc1ccc(Br)cc1)c1ccc2ccccc2c1O", "residual activity": 95}, {"smiles": "O=C(Nc1cccc(Cl)c1)c1ccc2ccccc2c1O", "residual activity": 95}]}, {"system": "Mycobacterium marinum", "assay": "Ratio of isoniazid MIC to compound MIC for Mycobacterium marinum CAMP 5644", "type": "functional", "settings": "not given", "values": [{"smiles": "O=C(Nc1cccc(F)c1)c1ccc2ccccc2c1O", "Ratio": 16}, {"smiles": "Cc1cccc(NC(=O)c2ccc3ccccc3c2O)c1", "Ratio": 16}]}, {"system": "Mycobacterium kansasii", "assay": "Antimycobacterial activity against Mycobacterium kansasii DSM 44162 after 7 days by two-fold serial dilution method", "type": "functional", "settings": "DSM 44162, 168 h", "units": {"MIC": "µM"}, "values": [{"smiles": "O=C(Nc1ccc([N+](=O)[O-])cc1)c1ccc2ccccc2c1O", "MIC": 51.9}, {"smiles": "O=C(Nc1ccc(F)cc1)c1ccc2ccccc2c1O", "MIC": 14.2}, {"smiles": "O=C(Nc1ccccc1Cl)c1ccc2ccccc2c1O", "MIC": 860}, {"smiles": "O=C(Nc1cccc(F)c1)c1ccc2ccccc2c1O", "MIC": 28.4}, {"smiles": "O=C(Nc1ccccc1[N+](=O)[O-])c1ccc2ccccc2c1O", "MIC": "> 830"}, {"smiles": "O=C(Nc1cccc([N+](=O)[O-])c1)c1ccc2ccccc2c1O", "MIC": "> 830"}, {"smiles": "O=C(Nc1ccccc1Br)c1ccc2ccccc2c1O", "MIC": "> 748"}, {"smiles": "O=C(Nc1ccc(Cl)cc1)c1ccc2ccccc2c1O", "MIC": 26.8}, {"smiles": "O=C(Nc1ccccc1C(F)(F)F)c1ccc2ccccc2c1O", "MIC": "> 773"}, {"smiles": "Cc1cccc(NC(=O)c2ccc3ccccc3c2O)c1", "MIC": 28.8}, {"smiles": "O=C(Nc1ccc(Br)cc1)c1ccc2ccccc2c1O", "MIC": 23.3}, {"smiles": "O=C(Nc1cccc(Cl)c1)c1ccc2ccccc2c1O", "MIC": 26.8}]}, {"system": "Spinacia oleracea", "assay": "Inhibition of PS2 in spinach chloroplasts assessed as reduction in chlorophyll a fluorescence emission at 0.1 to 1.2 mmol/L by fluorescence spectrophotometry", "settings": "not given", "values": [{"smiles": "O=C(Nc1ccccc1C(F)(F)F)c1ccc2ccccc2c1O", "inhibition": "Active"}]}, {"system": "Spinacia oleracea", "assay": "Inhibition of PS2 in spinach chloroplasts assessed as photoreduction of DCPIP measured remaining activity incubated for 2 mins in dark condition prior to testing by spectrophotometry relative to control; values are per cent of control", "parameters": "concentration or dose not given beside the values", "settings": "not given", "units": {"residual activity": "%"}, "values": [{"smiles": "O=C(Nc1ccc([N+](=O)[O-])cc1)c1ccc2ccccc2c1O", "residual activity": 10}, {"smiles": "O=C(Nc1ccc(F)cc1)c1ccc2ccccc2c1O", "residual activity": 10}, {"smiles": "O=C(Nc1ccccc1Cl)c1ccc2ccccc2c1O", "residual activity": 10}, {"smiles": "O=C(Nc1cccc(F)c1)c1ccc2ccccc2c1O", "residual activity": 10}, {"smiles": "O=C(Nc1ccccc1[N+](=O)[O-])c1ccc2ccccc2c1O", "residual activity": 10}, {"smiles": "O=C(Nc1cccc([N+](=O)[O-])c1)c1ccc2ccccc2c1O", "residual activity": 10}, {"smiles": "O=C(Nc1ccccc1Br)c1ccc2ccccc2c1O", "residual activity": 10}, {"smiles": "O=C(Nc1ccc(Cl)cc1)c1ccc2ccccc2c1O", "residual activity": 10}, {"smiles": "O=C(Nc1ccccc1C(F)(F)F)c1ccc2ccccc2c1O", "residual activity": 10}, {"smiles": "Cc1cccc(NC(=O)c2ccc3ccccc3c2O)c1", "residual activity": 10}, {"smiles": "O=C(Nc1ccc(Br)cc1)c1ccc2ccccc2c1O", "residual activity": 10}, {"smiles": "O=C(Nc1cccc(Cl)c1)c1ccc2ccccc2c1O", "residual activity": 10}]}, {"system": "not listed separately", "assay": "Inhibition of PS2 in spinach chloroplasts assessed as photoreduction of DCPIP incubated for 2 mins in dark condition prior to testing by spectrophotometry", "parameters": "species or system Spinacia oleracea", "settings": "not given", "units": {"IC50": "µM"}, "values": [{"smiles": "O=C(Nc1ccc([N+](=O)[O-])cc1)c1ccc2ccccc2c1O", "IC50": 24}, {"smiles": "O=C(Nc1ccc(F)cc1)c1ccc2ccccc2c1O", "IC50": 20.3}, {"smiles": "O=C(Nc1ccccc1Cl)c1ccc2ccccc2c1O", "IC50": 29.4}, {"smiles": "O=C(Nc1cccc(F)c1)c1ccc2ccccc2c1O", "IC50": 15.6}, {"smiles": "O=C(Nc1cccc([N+](=O)[O-])c1)c1ccc2ccccc2c1O", "IC50": 19.9}, {"smiles": "O=C(Nc1ccccc1Br)c1ccc2ccccc2c1O", "IC50": 61.9}, {"smiles": "O=C(Nc1ccc(Cl)cc1)c1ccc2ccccc2c1O", "IC50": 10.8}, {"smiles": "O=C(Nc1ccccc1C(F)(F)F)c1ccc2ccccc2c1O", "IC50": 126}, {"smiles": "Cc1cccc(NC(=O)c2ccc3ccccc3c2O)c1", "IC50": 20}, {"smiles": "O=C(Nc1ccc(Br)cc1)c1ccc2ccccc2c1O", "IC50": 9.6}, {"smiles": "O=C(Nc1cccc(Cl)c1)c1ccc2ccccc2c1O", "IC50": 7.9}]}]}
